{"source": "ChEMBL document CHEMBL5620418", "test_system": "Mus musculus", "assay": "Inhibition of morphine-induced intestinal propulsion function in mouse assessed as charcoal propulsion length at 10 mg/kg, ip by charcoal gavage and intestinal motility assays", "format": "functional, organism-based", "note": "The source made the active and inactive calls. The rule behind the calls is not given here.", "data": [{"smiles": "COC(=O)/C=C/C(=O)N[C@@H]1CC[C@@]2(O)[C@H]3Cc4ccc(O)c5c4[C@@]2(CCN3CC2CC2)[C@H]1O5", "values": [{"measurement": "inhibition", "value": "Active"}]}]}
